Among the data in PMC4459817, “Vasculotide reduces endothelial permeability and tumor cell extravasation in the absence of binding to or agonistic activation of Tie2” (EMBO Molecular Medicine, 2015) are Tie2 phosphorylation values, retold here.

The test relates to Tie2 in HMVEC-DBls. The test is described as follows: in vitro Tie2 phosphorylation (immunoprecipitation/immunoblot), HMVEC-DBl. To be noted: VT 10 ng/mL vs Ang1 200 ng/mL, presence or absence of serum/supplements, Fig7F. The class given is cell-based, human. An excerpt:
Figure 7 In vitro Vasculotide vs. Ang1 stimulations: effects on Tie2 receptor phosphorylation in primary endothelial cells—HUVECs (A-E) and HMVEC-DBls (F) • A–F Primary human umbilical vein endothelial cells (HUVECs) or primary human dermal microvascular endothelial cells (HMVEC-DBls) were stimulated at 80% confluency with Vasculotide (treatment), Ang1 (positive control; ligand of Tie2), PBS (vehicle control), or VEGF (negative control; non-ligand of Tie2). Tie2 was immunoprecipitated from cell lysates and immunoblotted for total Tie2 or phosphotyrosine. […] Source data are available online for this figure. […]
Nodule areas were then […]
unit converted (to μm2) and normalized to total lung section area (including air spaces) using ROI measurements from ImageJ software (NIH).
7. Histological assessment of primary tumor viability and hypoxia
5-μm thick sections of PFA-fixed paraffin-embedded mammary fat pad tumors were subjected to: (i) standard hematoxylin and eosin (H&E) staining to visualize viable vs. necrotic regions; or (ii) standard IHC staining with a goat anti-human carbonic anhydrase IX (CAIX or CA9) antibody (R&D Systems AF2188, 1:80 dilution) plus hematoxylin counterstain to visualize hypoxic regions. […]
IHC staining for CAIX further marks a hypoxic band at the edge of the viability rim bordering the necrotic core – the thickness of this hypoxic edge was averaged over 12 measurements spaced 30o apart (see Fig. 5E).
8. Western immunoblotting for total or phosphorylated Tie2
Cultured ECs and TCs were lysed in RIPA lysis buffer as previously described (Bogdanovic et al, 2006).
Lung/ liver/ kidney tissues, which had been snap-frozen in liquid nitrogen once harvested from mice, were homogenized in RIPA lysis buffer (50 mM Tris-HCl pH 7.5, 150 mM NaCl, 1% Igepal, 0.5% sodium deoxycholate, 0.1% SDS, 1 mM Na3VO4 and protease inhibitors) at 4 °C. […]
Semi-quantitative densitometry analysis of immunoblots was performed using the ChemiGenius2 bioimaging system and GeneSnap/GeneTools software (Syngene). […]
On the technique in general: Immunoblotting shows a protein as a band on a membrane.

With “CHHHRHSF [Vasculotide, 4-armed maleimide-functionalized polyethylene glycol (PEG) backbone to link together four cysteine-capped T7 peptides, that is, CHHHRHSF]”, the Tie2 phosphorylation result is given as “did not activate Tie2 receptors in HMVEC-DBls”. The Tie2 phosphorylation result (listed as VT) is reported as “did not have similar activity as equimolar Ang1”.

B1: recombinant human Ang1 (rhAng1) (ligand, UniProt Q15389 16-498, looked up)
chain: HIGCSNQRRSPENSGRRYNRIQHGQCAYTFILPEHDGNCRESTTDQYNTNALQRDAPHVEPDFSSQKLQHLEHVMENYTQWLQKLENYIVENMKSEMAQIQQNAVQNHTATMLEIGTSLLSQTAEQTRKLTDVETQVLNQTSRLEIQLLENSLSTYKLEKQLLQQTNEILKIHEKNSLLEHKILEMEGKHKEELDTLKEEKENLQGLVTRQTYIIQELEKQLNRATTNNSVLQKQQLELMDTVHNLVNLCTKEGVLLKGGKREEEKPFRDCADVYQAGFNKSGIYTIYINNMPEPKKVFCNMDVNGGGWTVIQHREDGSLDFQRGWKEYKMGFGNPSGEYWLGNEFIFAITSQRQYMLRIELMDWEGNRAYSQYDRFHIGNEKQNYRLYLKGHTGTAGKQSSLILHGADFSTKDADNDNCMCKCALMLTGGWWFDACGPSNLNGMFYTAGQNHGKLNGIKWHYFKGPSYSLRSTTMMIRPLDF
notes: angiopoietin-1, human, recombinant; also called angiopoietin-1; source: bought: R&D Systems (named for the Boyden chamber experiments)
For B1, the Tie2 phosphorylation result is “strongly and consistently activated Tie2 phosphorylation”.
